The results in this text go back to US5998521A, “Aqueous fluoropolymer compositions and method of preparing the same” (3M Innovative Properties Company, priority 1996, dated 1999).

The test system of series [1] is bacterial sludge. Description: Bacterial sludge contact test. The following applies: 28 days, ambient conditions. The method, then: (§1) The environmental stability of C6 F13 CF(CF3)COO^- NH4^+ was investigated under ambient conditions using a bacterial sludge contact test. In this test, bacterial sludge was obtained from the municipal waste treatment plant at Pig's Eye, Minn., the sludge was centrifuged to collect the water-insoluble high density solids, and was reconstituted in water to a standard level of about 2000 ppm of total suspended solids. A 5 mL aliquot of the 2000 ppm sludge in water was placed in each of several 20 mL vials, and enough of the carboxylate salt was added to each vial to achieve a concentration of about 496 ppm (1 millimolar). Each vial was tightly capped with a septum cap and was allowed to stand at room temperature. At intervals, the concentrations of perfluoroolefin and perfluoromonohydride gases in each headspace were measured by removing a gas sample from the space over the liquid, using a Hewlitt Packard Gas Chromatograph with a headspace sampling accessory. The peak areas determined from each gas sample were compared to a standard series made by placing increasing concentrations of a defined mixture of perfluoroolefin and perfluoromonohydride in water in the same types of vials, and subjecting the headspaces in the vials to the same analytical procedure. Results, given below, state the complete conversion relative to theoretical percent of the amount of perfluoroolefin/perfluoromonohydride mixture formed relative to that expected from complete conversion of the salt to volatile fluorocarbons. A control experiment using water with no sludge was also run at the 28 day test point.

Series [2] can be described thus: Bacterial sludge contact test. As to the method: as §1
The nature of series [3]: Thermogravimetric analysis of neat perfluorocarboxylate salts. It is filed as physicochemical. The settings on record: neat salt, nitrogen, 10° C./min. The source says: Thermal degradation measurements were made on a series of neat perfluorocarboxylate salts, including several α-branched open chain structures (Examples N2-N9), a primarily linear open chain structure (Example N10-Fluorad™ FC-143 Fluorochemical Surfactant, commercially available from 3M Company, St. Paul, Minn.), and a closed chain (i.e., cyclic) structure (Example N11--made by the electrochemical fluorination of benzoic acid and hydrolysis in the presence of KOH, as described in U.S. Pat. No. 2,567,011 (Diesslin et al.)).
The perfluorocarboxylate salts were tested using a Perkin-Elmer TGA 7 thermogravimetric analysis apparatus and a salt sample size of approximately 5 mg, a heating rate of 10° C./min, and a nitrogen gas flow rate of 40-45 mL/min. Using the TGA 7 software, the following temperatures were recorded: (1) the onset temperature of decomposition, (2) the temperature at which 50% of the sample weight was lost, and (3) the temperature at which 90% of the sample weight was lost.

SMILES strings stand for the structures.

As for `O=C(O)C(F)(C(F)(F)F)C(F)(F)C(F)(F)C(F)(F)C(F)(F)C(F)(F)C(F)(F)F` (stereo not shown) [Example M16, C6 F13 CF(CF3)COO^- H4 N^+], the “effect of sludge on amount of perfluoroolefin/perfluoromonohydride” value in series [1] is given as “more than doubled”. The percent perfluoroolefin/perfluoromonohydride formed at 672 h, 1000 µM in series [2] (Day 28, no sludge) amounted to 32%. This molecule returned a percent perfluoroolefin/perfluoromonohydride formed at 24 h, 1000 µM in series [2] (bacterial sludge, Day 1, with sludge) of 4%. In series [2] (bacterial sludge, Day 4, with sludge), this molecule registered a percent perfluoroolefin/perfluoromonohydride formed at 96 h, 1000 µM of 13%. Further, in series [2] (bacterial sludge, Day 7, with sludge), the percent perfluoroolefin/perfluoromonohydride formed at 168 h, 1000 µM amounted to 23%. In series [2] (bacterial sludge, Day 14, with sludge), this molecule came in with a percent perfluoroolefin/perfluoromonohydride formed at 336 h, 1000 µM of 44%. Moreover, the percent perfluoroolefin/perfluoromonohydride formed at 672 h, 1000 µM in series [2] (bacterial sludge, Day 28, with sludge) was 70%. In series [3], the “Temperature for: 50% loss” value was 179 °C, the “Temperature for: 90% loss” value was found to be 193 °C and the “Temperature for: Onset” value worked out at 165 °C.
